Source: paper PMC6927504, “Screening of House Dust from Chinese Homes for Chemicals with Liver X Receptors Binding Activities and Characterization of Atherosclerotic Activity Using an in Vitro Macrophage Cell Line and ApoE^−/− Mice” (Environmental Health Perspectives, 2019)

Experiments:
[1] = target: T1, human LXRα (Homo sapiens, UniProt Q13133); assay: cell-based
T1 construct: expressed in transfected cells; host or cells: Saccharomyces cerevisiae Y187
T1 sequence (Q13133 205-447): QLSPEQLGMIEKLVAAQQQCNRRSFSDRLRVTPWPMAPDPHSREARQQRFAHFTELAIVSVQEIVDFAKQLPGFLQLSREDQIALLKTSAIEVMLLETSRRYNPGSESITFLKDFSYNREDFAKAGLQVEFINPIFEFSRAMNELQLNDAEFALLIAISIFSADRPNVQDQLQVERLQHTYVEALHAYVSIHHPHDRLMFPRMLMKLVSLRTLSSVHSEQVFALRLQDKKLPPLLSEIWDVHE

[2] = system: ABCG1; assay: qRT-PCR of LXR target gene ABCG1 in RAW264.7 macrophages; format: cell-based; settings: vehicle-treated cells set to 1
Procedure: RAW264.7 cells were obtained from the National Infrastructure of Cell Line Resource of Beijing, China, and the cells used for the experiment were cultured for at least three passages. Dulbecco’s Modified Eagle’s Medium (DMEM)-F12 medium containing 10% fetal bovine serum (FBS) was employed to culture the RAW264.7 cells. RAW264.7 cells were incubated at 37°C with 5% carbon dioxide. The RAW264.7 cells were plated at 2.5×10^5 cells/well (6-well plates), 6.0×10^4 cells/well (24-well plates), and 10^4 cells/well (96-well plates). The RAW264.7 cells were plated and grown overnight; then the medium was removed and fresh DMEM-F12 contained with 0.1% DMSO (control; n=3 ) or TPHP at the concentrations of 1–20,000 nM ( n=3 per group) was added. […] Then the cells were used for the quantitative reverse transcription (qRT)-PCR, cellular cholesterol efflux assay, and foam cell formation experiment.
Total RNA was isolated from RAW264.7 cells and mouse peritoneal macrophages using TRIzol reagent according to the manufacturer’s instructions. Then a Nanovue Plus™ spectrophotometer (GE Healthcare Life Science) was used to analyze the concentration, quality, and purity of the RNA. Total RNA ( 1μg ) was mixed with oligo deoxythymine (dT) ( 1μL ) at 70°C for 5 min and then combined with a mixture containing Moloney murine leukemia virus (MMLV) reverse transcriptase ( 1μL ), deoxy-ribonucleoside triphosphate (dNTP) ( 1.25μL ), Recombinant RNasin® Ribonuclease Inhibitor (Promega) ( 0.65μL ), and MMLV buffer ( 5μL ) at 42°C for 60 min. The SYBR® Green PCR Kit (TOYOBO) was used for RT-PCR analysis. Real-time fluorescence detection was performed using the StepOnePlus™ sequence detection system (Applied Biosystems). […] The following primers were designed and purchased from Sangon Biotech:
• actin: 5′-[…]-3′ and 5′-[…]-3′ ATP-binding cassette transporter A1 (ABCA1): 5′-[…]-3′ and 5′-[…]-3′ • ATP-binding cassette transporter G1 (ABCG1): 5′-[…]-3′ and 5′-[…]-3′.

[3] = system: ABCA1; assay: qRT-PCR of ABCA1 in peritoneal macrophages isolated from exposed C57BL/6 mice; format: in vivo, mouse; settings: 200 mg/kg BW oral gavage for 7 d, control set to 1, p<0.01
Procedure: Total RNA was isolated from RAW264.7 cells and mouse peritoneal macrophages using TRIzol reagent according to the manufacturer’s instructions. Then a Nanovue Plus™ spectrophotometer (GE Healthcare Life Science) was used to analyze the concentration, quality, and purity of the RNA. Total RNA ( 1μg ) was mixed with oligo deoxythymine (dT) ( 1μL ) at 70°C for 5 min and then combined with a mixture containing Moloney murine leukemia virus (MMLV) reverse transcriptase ( 1μL ), deoxy-ribonucleoside triphosphate (dNTP) ( 1.25μL ), Recombinant RNasin® Ribonuclease Inhibitor (Promega) ( 0.65μL ), and MMLV buffer ( 5μL ) at 42°C for 60 min. The SYBR® Green PCR Kit (TOYOBO) was used for RT-PCR analysis. Real-time fluorescence detection was performed using the StepOnePlus™ sequence detection system (Applied Biosystems). […]
All experiments related to animals were approved by the institutional animal care and use committee of Peking University and followed the guidelines for animal experiments of the university as well as for experimental animals in China. […] Body weight (BW) was measured every week during the dosing period. […] Considering that this study assessed the effects of short-term exposure to TPHP, whereas humans are exposed to TPHP over a lifelong period, the present study used exposure doses that were higher than that of human exposure from house dust. […]

## O=P(Oc1ccccc1)(Oc1ccccc1)Oc1ccccc1 [TPHP, triphenyl phosphate]
[1]
  IC50: 1480 nM
[1]; dust standard reference material SRM2585
  Contribution to the LXRα-antagonist activity of SRM2585: 33.83%
[1]; range over indoor dust samples (Table S4)
  Share of the LXRα-antagonist activity of indoor dust explained by the chemical: 0.19–51.07%
[2]; 100 nM, p<0.05
  ABCG1 gene expression relative to control: 0.87±0.05 fold
[2]; 1,000 nM, p<0.05
  ABCG1 gene expression relative to control: 0.80±0.06 fold
[2]; 5,000 nM, p<0.01
  ABCG1 gene expression relative to control: 0.52±0.02 fold
[2]; 10,000 nM, p<0.01
  ABCG1 gene expression relative to control: 0.42±0.05 fold
[2]; 20,000 nM, p<0.01
  ABCG1 gene expression relative to control: 0.28±0.02 fold
[3]
  ABCA1 gene expression in peritoneal macrophages relative to control: 0.51±0.07 fold
